The assay deals with adiponectin. The experiment in a line: Comparative test for adiponectin production enhancing effect: plasma adiponectin concentration by radioimmunoassay. Format: in vivo. To be noted: female db/db mice, one week oral; Compound A 0.3 mg/kg vs B 3 mg/kg (P<0.001) and vs C 30 mg/kg (P<0.01), Tukey's multiple comparison test. How it is done: Plasma glucose levels and plasma adiponectin concentrations were compared between each of the groups respectively. The plasma adiponectin concentration was measured using a radioimmunoassay kit (Mouse Adiponectin RIA Kit, Linco Research, Inc.). Plasma was diluted by 100 times using a buffer provided with the kit, and measurement was conducted using the diluted plasma (5 μL) (final dilution rate: 2000 times). The radioactivity was measured using a gamma counter, and adiponectin concentration was calculated from the measured radioactivity (measurement unit: μg/mL).

The structures appear in SMILES notation. Where a name gives a salt, the structure may show the parent alone.

Regarding `COc1ccc2nc(COc3ccc(CC4SC(=O)NC4=O)cc3)n(C)c2c1` (stereo not shown) [Compound A, 5-[4-(6-Methoxy-1-methyl-1H-benzimidazol-2-ylmethoxy)benzyl]thiazolidine-2,4-dione hydrochloride], the “plasma adiponectin concentration compared with Compound B and Compound C administration groups” value is “significant increasing effect”.

Values taken from patent US20090088462A1, “Pharmaceutical Composition for Enhancing Adiponectin Production” (Daiichi Sankyo Company, Limited, priority 2005, published 2009).
